Source: patent US4666907A, “Phenothiazine and derivatives and analogs and use as leukotriene biosynthesis inhibitors” (Merck Frosst Canada, Inc., priority 1986, dated 1987)
≈ marks a conversion by molar mass, not a printed value.

Legend:
[1] = system: PAF-induced hyperalgesia in Sprague-Dawley rats; experiment: PAF-induced hyperalgesia assay (vocalization threshold, rat paw); format: in vivo; details: po, read-out: PAF Induced Hyperalgesia Assay % inhibition
Method: Female Sprague-Dawley rats, 35-40 g were fasted overnight. Platelet activating factor, PAF, (L-lecithin B-acetyl O-alkyl) 1 μg/0.1 ml was given by subplantar injection in the rat paw. The compounds to be evaluated were homogenized in aqueous Vehicle (0.9% benzyl alcohol, 0.5% Tween 80 and 0.4% methylcellulose) and administered orally in a volume of 0.1 ml, 30 minutes prior to PAF.
Animals were tested 1, 2, 3 and 4 hours after PAF administration. The vocalization threshold, defined as the pressure (mm Hg) needed to evoke a squeak response, was recorded for both the injected and contralateral paw. No animal was subjected to pressure greater than 60 mm Hg. Hyperalgesia is defined as a decrease in vocalization threshold as compared to a normal paw. Percent inhibition of hyperalgesia was calculated as the proportion of animals with vocalization thresholds greater than 200% of controls.

asthmatic rats = experiment: Asthmatic rat assay (duration of dyspnoea after egg albumin aerosol); format: in vivo; details: po; for inhibition in vivo at 3 mg/kg: 3 mg/kg p.o.; for inhibition in vivo at 1.5 mg/kg: 1.5 mg/kg p.o.
Description: Rats were obtained from an inbred line of asthmatic rats. Both female and male rats from 200 to 300 g were used.
Egg albumin (EA), grade V, crystallized and lyophilized, was obtained from Sigma Chemical Co., St. Louis. Bordetella pertussis vaccine, containing 30×10^9 killed bacteria per ml was obtained from the Institut Armand-Frappier, Laval des Rapides, Quebec. Aluminum hydroxide was obtained from the Regeis Chemical Company, Chicago.
The challenge and subsequent respiratory recordings were carried out in a clear plastic box with internal dimensions 10×6×4 inches. The top of the box was removable; in use, it was held firmly in place by four clamps and an airtight seal was maintained by a soft rubber gasket. […] A Fleisch No. 0000 pneumotachograph was inserted into one end of the box and coupled to a Grass volumetric pressure transducer (PT5-A) which was then connected to a Beckman Type R Dynograph through appropriate couplers. While aerosilizing the antigen, the outlets were open and the pneumotachograph was isolated from the chamber. The outlets were closed and the pneumotachograph and the chamber were connected during the recording or the respiratory patterns. For challenge, 2 ml of a 3% solution of antigen in saline was placed into each nebulizer and the aerosol was generated with air from a small Potter diaphragm pump operating at 10 psi and a flow of 8 liters/minutes.
Rats were sensitized by injection (s.c.) 1 ml of a suspension containing 1 mg EA and 200 mg aluminum hydroxide in saline. Simultaneously, they received an injection (i.p.) of 0.5 ml of B. pertussis vaccine. They were used between days 14 and 18 postsensitization. In order to eliminate the serotonin component of the response, rats were pretreated intravenously 5 minutes prior to aerosol challenge with […] methylserzide. Rats were then exposed to an aerosol of 3% EA in saline for exactly 1 minute, then their respiratory profiles were recorded for a further 25-30 minutes. The duration of continuous dyspnoea was measured from the respiratory recordings.
Compounds were generally administered either intraperitoneally 1 hour prior to challenge or orally 11/2 hours prior to challenge. They were either dissolved in dimethylsulfoxide or suspended in 0.1% methocel and 0.5% Tween 80. The volume injected has 2 ml kg^-1 (intraperitoneally) or 10 ml kg^-1 (orally). Prior to oral treatment rats were starved overnight. Their activity was determined in terms of their ability to decrease the duration of symptoms of dyspnoea in comparison with a group of vehicle-treated controls. Usually, a compound was evaluated at a series of doses and an ED50 was determined. This was defined as the dose (mg/kg) which would inhibit the duration of symptoms by 50%.

[2] = system: Mouse peritoneal macrophages; experiment: Mouse macrophage assay (zymosan-stimulated arachidonic acid metabolites, Leukotriene C4); format: cell-based; details: mouse peritoneal macrophages, zymosan, read-out: Macrophage IC50
Method: Mouse peritoneal macrophages were treated sequentially with arachidonic acid (labelled with tritium); the compound being evaluated as an inhibitor, and a stimulator (zymosan). Metabolites derived from arachidonic acid (PGE2, 6-Keto PG-F1@ and Leukotriene C4) were separated from the incubation medium by extraction and chromatography, and then quantitated by determining the amount of radioactivity (cpm) associated with each of them. […] (This protocol is identical to that described in the reference except that the radioactivity herein associated with the LTC4 was determined by counting an aliquot of the final aqueous solution directly rather than chromatographing it first).
Reference: Humes, J. L. et al., J. Biol. Chem. 257, 1591-4 (1982).

[3] = system: sensitized guinea pig trachea; experiment: Antigen challenge 'in vitro' assay (egg albumin-induced contraction of sensitized tracheal chains); format: cell-based; details: Cavia porcellus; for inhibition at 10 µg/mL: at 10 μg/ml, read-out: In Vitro Antigen Challenge % Inhibition
Method: Male guinea pigs weighing 300-350 g were sensitized by injecting (i.p.) 0.5 ml of a suspension containing 0.4 mg of egg albumin (Ovalbumin, Grade V, Sigma Chemical Co.) and 4.0 g aluminum hydroxide in 19.6 ml of saline. Two weeks were permitted for sensitization to occur.
Three sensitized guinea pigs were stunned and exsanguinated. The tracheas were removed, freed of adhering tissue and divided longitudinally by cutting through the cartilaginous tissue directly opposite the muscle insertion. Each opened trachea was then transected between every second cartilage. Four of the cut sections were tied together, end to end in a series with No. 0.7 silk thread ensuring that the tracheal muscles were all in the same vertical plane. Thus, each chain consisted of tissue from three different animals.
The chain so formed was then suspended under 1 g of tension (by silk ties at each end) in a 20 ml organ bath containing 10 ml of modified^1 Krebs-Henseleit buffer solution gassed with 95% O2 and 5% CO2 at 37° C. Mepyramine (0.55 μg/ml) and indomethacin (2.67 μg/ml were added to the buffer to avoid the contribution of histamine receptors and cyclooxygenase products to the contraction. To record responses one end of the tracheal chain was attached to a Gould Statham UC-2 force displacement transducer which was connected to a Beckman Type R-dynograph.The preparations were allowed to equilibrate for one hour during which time the tissues were automatically washed (10 ml volume displacement) ever 6 minutes.
After the equilibration period the tissues were primed with methacholine (3 μg/lml; 1.5×10^-5 M), washed and allowed to recover to baseline. The tissues were treated again with a second dose of methacholine, washed, allowed to return to baseline and washed for an additional hour.
Two chains were used as a control. These were incubated in a concentration of egg albumin sufficient to induce an average contraction of 50-80% of the methacholine response.
Each compound to be tested was added to two other baths (at a final concentration in each bath of 10 μg/ml or lower) 15 minutes prior to challenging the fresh chains with egg albumin.
The response of the challenged tissue was expressed as a percentage of the methacholine maximum. The % inhibition for each compound was then calculated. Compounds which at 10 μg/ml (final concentration) inhibited the egg albumin response by 50% or more were retested at a lower concentration.

[4] = system: LTB4 formation in rat PMN; experiment: Rat polymorphonuclear leukocyte (P.M.N.) assay, LTB4 formation; format: cell-based; details: A-23187, LTB4
Method: Rats under ether anesthesia are injected (i.p.) with 8 ml of a suspension of sodium caseinate (6 grams in ca. 50 ml water). After 15-24 hours the rats are sacrificed (CO2) and the cells from the peritoneal cavity are recovered by lavage with 20 ml of buffer (Eages MEM containing 30 mM HEPES adjusted to pH 7.4 with NaOH). The cells are pelleted (350×g, 5 min.), resuspended in buffer with vigorous shaking, filtered through lens paper, recentrifuged and finally suspended in buffer at a concentration of […]. A 500 μl aliquot of PMN suspension and test compound are preincubated for 2 minutes at 37° C., followed by the addition of 10 μM A-23187. The suspension is stirred for an additional 4 minutes then bioassayed for LTB4 content by adding an aliquot to a second 500 μl portion of the PMN at 37° C. The LTB4 produced in the first incubation causes aggregation of the second PMN, which is measured as a change in light transmission. The size of the assay aliquot is chosen to give a submaximal transmission change (usually […]) for the untreated control. The percentage inhibition of LTB4 formation is calculated from the ratio of transmission change in the sample to the transmission change in the compound-free control.

| SMILES | inhibition in vivo at 3 mg/kg (asthmatic rats) [%] | IC50 [2] [µg/mL] | inhibition at 10 µg/mL [3] [%] | also measured |
| --- | --- | --- | --- | --- |
| O=S1(=O)c2ccccc2Nc2ccc(O)cc21 | 70 |  |  | responders at 3 mg/kg ([1]; 3 mg/kg p.o.): 60% |
| O=S1(=O)c2ccccc2Nc2ccc(O)c(Cl)c21 |  |  |  | responders at 1.2 mg/kg ([1]; 1.2 mg/kg p.o.): 50%; inhibition in vivo at 1.5 mg/kg (asthmatic rats): 59% |
| COc1ccc2c(c1Cl)Sc1cc(F)ccc1N2C | 42 |  |  |  |
| COc1ccc2c(c1Cl)[S+]([O-])c1ccccc1N2 (stereo not drawn) | 56 |  |  |  |
| O=S1(=O)c2ccccc2Nc2ccc(O)c(O)c21 |  |  |  | inhibition in vivo at 1.5 mg/kg (asthmatic rats): 65% |
| CC(=O)N1c2ccccc2Sc2c1ccc(O)c2Cl | 61 |  |  |  |
| CC(=O)Oc1ccc2c(c1Cl)Sc1ccccc1N2C(C)=O | 58 |  |  |  |
| COc1ccc2c(c1Cl)Sc1cc(F)ccc1N2C(C)=O | 36 |  |  |  |
| COc1ccc2c(c1Cl)[S+]([O-])c1cc(F)ccc1N2C (stereo not drawn) | 52 |  |  |  |
| COc1ccc2c(c1Cl)Oc1ccccc1N2C |  |  |  | inhibition in vivo at 0.3 mg/kg (asthmatic rats; 0.3 mg/kg p.o.): 49% |
| COc1ccc2c(c1)Sc1c(cc(OC)c(OC(C)=O)c1Br)N2C(C)=O |  |  |  | responders at 0.03 mg/kg ([1]; 0.03 mg/kg p.o.): 60%; inhibition in vivo at 0.5 mg/kg (asthmatic rats; 0.5 mg/kg p.o.): 58% |
| COc1ccc2c(c1)Sc1c(cc(OC)c(O)c1Br)N2C(C)=O |  |  |  | responders at 0.1 mg/kg ([1]; 0.1 mg/kg p.o.): 60%; inhibition in vivo at 1.5 mg/kg (asthmatic rats): 78% |
| Clc1cccc2c1Sc1ccccc1N2 [Compound 3] |  | 0.01 to 0.1 | 37 | IC50 [4]: 0.05 to 0.5 µg/mL (≈ 0.214 to 2.14 µM) |
| Cc1cccc2c1Nc1ccccc1S2 [Compound 4] |  | 5 | 76 |  |
| FC(F)(F)c1ccc2c(c1)Nc1ccccc1S2 [Compound 5] |  | 0.1 | 7 |  |
| Oc1ccc2c(c1)Sc1ccccc1N2 [Compound 6] |  | 0.1 to 1 | 100 | IC50 [4]: 0.016 µg/mL (≈ 0.0743 µM) |
| CC(=O)Oc1ccc2c(c1)Sc1ccccc1N2 [Compound 7] |  | 0.01 to 0.1 | 60 | IC50 [4]: 0.005 µg/mL (≈ 0.0194 µM) |
| CC(=O)c1ccc2c(c1)Nc1ccccc1S2 [Compound 8] |  | 0.2 | 60 |  |
| Oc1ccc2c(c1Cl)Sc1ccccc1N2 [Compound 9] |  |  |  | inhibition at 3 µg/mL ([3]; at 3 μg/ml): 97%; IC50 [4]: 0.005 µg/mL (≈ 0.02 µM) |
